Results: patent publication US9663530B2, “5-oxa-2-azabicyclo[2.2.2]OCTAN-4-yl and 5-oxa-2-azabicyclo[2.2.1]heptan-4-yl derivatives” (Hoffmann-La Roche Inc., priority 2014, dated 2017)

Experiments:
rat TAAR1 = rat TAAR1 (Rattus norvegicus (Rat), UniProt Q923Y9); experiment: Radioligand binding assay on rat TAAR1; conditions: rat TAAR1 (second value of the cell); membranes of HEK-293 cells stably expressing rat TAAR1; read-out: Ki (μM) mouse/rat
Protocol: (§1) Construction of TAAR Expression Plasmids and Stably Transfected Cell Lines
(§2) For the construction of expression plasmids the coding sequences of human, rat and mouse TAAR 1 were amplified from genomic DNA essentially as described by Lindemann et al.. The Expand High Fidelity PCR System (Roche Diagnostics) was used with 1.5 mM Mg^2+ and purified PCR products were cloned into pCR2.1-TOPO cloning vector (Invitrogen) following the instructions of the manufacturer. PCR products were subcloned into the pIRESneo2 vector (BD Clontech, Palo Alto, Calif.), and expression vectors were sequence verified before introduction in cell lines.
(§3) HEK293 cells (ATCC # CRL-1573) were cultured essentially as described by Lindemann et al. (2005). For the generation of stably transfected cell lines HEK293 cells were transfected with the pIRESneo2 expression plasmids containing the TAAR coding sequences (described above) with Lipofectamine 2000 (Invitrogen) according to the instructions of the manufacturer, and 24 hrs post transfection the culture medium was supplemented with 1 mg/ml G418 (Sigma, Buchs, Switzerland). After a culture period of about 10 d clones were isolated, expanded and tested for responsiveness to trace amines (all compounds purchased from Sigma) with the cAMP Biotrak Enzyme immunoassay (EIA) System (Amersham) following the non-acetylation EIA procedure provided by the manufacturer.
Radioligand Binding Assay on Rat TAAR1
(§4) Membrane Preparation and Radioligand Binding.
HEK-293 cells stably expressing rat TAAR1 were maintained at 37° C. and 5% CO2 in DMEM high glucose medium, containing fetal calf serum (10%, heat inactivated for 30 min at 56° C.), penicillin/streptomycin (1%), and 375 μg/ml geneticin (Gibco). Cells were released from culture flasks using trypsin/EDTA, harvested, washed twice with ice-cold PBS (without Ca^2+ and Mg^2+), pelleted at 1,000 rpm for 5 min at 4° C., frozen and stored at −80° C. Frozen pellets were suspended in 20 ml HEPES-NaOH (20 mM, pH 7.4) containing 10 mM EDTA and homogenized with a Polytron (PT 6000, Kinematica) at 14,000 rpm for 20 s. The homogenate was centrifuged at 48,000×g for 30 min at 4° C. Subsequently, the supernatant was removed and discarded, and the pellet resuspended in 20 ml HEPES-NaOH (20 mM, pH 7.4) containing 0.1 mM EDTA using the Polytron (20 s at 14,000 rpm). This procedure was repeated and the final pellet resuspended in HEPES-NaOH containing 0.1 mM EDTA and homogenized using the Polytron. Typically, aliquots of 2 ml membrane portions were stored at −80° C. With each new membrane batch the dissociation constant (Kd) was determined via a saturation curve. […] Nonspecific binding was defined as the amount of ^3[H]-(S)-4-[(ethyl-phenyl-amino)-methyl]-4,5-dihydro-oxazol-2-ylamine bound in the presence of 10 μM unlabeled ligand. All compounds were tested at a broad range of concentrations ([…]) in duplicates. The test compounds (20 […]μl/well) were transferred into a 96 deep well plate (TreffLab), and 180 μl of HEPES-NaOH (20 mM, pH 7.4) containing MgCl2 (10 mM) and CaCl2 (2 mM) (binding buffer), 300 μl of the radioligand ^3[H]-(S)-4-[(ethyl-phenyl-amino)-methyl]-4,5-dihydro-oxazol-2-ylamine at a concentration of 3.3×Kd in nM and 500 μl of the membranes (resuspended at 50 μg protein per ml) added. The 96 deep well plates were incubated for 1 hr at 4° C. Incubations were terminated by rapid filtration through Unifilter-96 plates (Packard Instrument Company) and glass filters GF/C (Perkin Elmer) presoaked for 1 hr in polyethylenimine (0.3%) and washed 3 times with 1 ml of cold binding buffer. After addition of 45 μl of Microscint 40 (PerkinElmer) the Unifilter-96 plate was sealed and after 1 hr the ratioactivity counted using a TopCount Microplate Scintillation Counter (Packard Instrument Company).

mouse TAAR1 = mouse TAAR1 (Mus musculus (Mouse), UniProt Q923Y8); experiment: Radioligand binding assay on mouse TAAR1; conditions: mouse TAAR1 (first value of the cell); membranes of HEK-293 cells stably expressing mouse TAAR1; read-out: Ki (μM) mouse/rat
Protocol: as §1, §2, §3
Radioligand Binding Assay on Mouse TAAR1
as §4
HEK-293 cells stably expressing mouse TAAR1 were maintained at 37° C. and 5% CO2 in DMEM high glucose medium, containing fetal calf serum (10%, heat inactivated for 30 min at 56° C.), penicillin/streptomycin (1%), and 375 μg/ml geneticin (Gibco). Cells were released from culture flasks using trypsin/EDTA, harvested, washed twice with ice-cold PBS (without Ca^2+and Mg^2+), pelleted at 1,000 rpm for 5 min at 4° C., frozen and stored at −80° C. Frozen pellets were suspended in 20 ml HEPES-NaOH (20 mM, pH 7.4) containing 10 mM EDTA and homogenized with a Polytron (PT 6000, Kinematica) at 14,000 rpm for 20 s. The homogenate was centrifuged at 48,000×g for 30 min at 4° C. Subsequently, the supernatant was removed and discarded, and the pellet resuspended in 20 ml HEPES-NaOH (20 mM, pH 7.4) containing 0.1 mM EDTA using the Polytron (20 s at 14,000 rpm). This procedure was repeated and the final pellet resuspended in HEPES-NaOH containing 0.1 mM EDTA and homogenized using the Polytron. Typically, aliquots of 2 ml membrane portions were stored at −80° C. With each new membrane batch the dissociation constant (Kd) was determined via a saturation curve. The TAAR1 radioligand ^3[H]-(S)-4-[(ethyl-phenyl-amino)-methyl]-4,5-dihydro-oxazol-2-ylamine (described in WO 2008/098857) was used at a concentration equal to the calculated Kd value, that was usually around 0.7 nM, resulting in the binding of approximately 0.5% of the radioligand and a specific binding representing approximately 70% of the total binding. Nonspecific binding was defined as the amount of ^3[H]-(S)-4-[(ethyl-phenyl-amino)-methyl]-4,5-dihydro-oxazol-2-ylamine bound in the presence of 10 μM unlabeled ligand. All compounds were tested at a broad range of concentrations ([…]) in duplicates. The test compounds (20 […]μl/well) were transferred into a 96 deep well plate (TreffLab), and 180 μl of HEPES-NaOH (20 mM, pH 7.4) containing MgCl2 (10 mM) and CaCl2 (2 mM) (binding buffer), 300 μl of the radioligand ^3[H]-(S)-4-[(ethyl-phenyl-amino)-methyl]-4,5-dihydro-oxazol-2-ylamine at a concentration of 3.3×Kd in nM and 500 μl of the membranes (resuspended at […]) added. The 96 deep well plates were incubated for 1 hr at 4° C. Incubations were terminated by rapid filtration through Unifilter-96 plates (Packard Instrument Company) and glass filters GF/C (Perkin Elmer) presoaked for 1 hr in polyethylenimine (0.3%) and washed 3 times with 1 ml of cold binding buffer. […]

Chain of rat TAAR1 (Q923Y9 whole entry): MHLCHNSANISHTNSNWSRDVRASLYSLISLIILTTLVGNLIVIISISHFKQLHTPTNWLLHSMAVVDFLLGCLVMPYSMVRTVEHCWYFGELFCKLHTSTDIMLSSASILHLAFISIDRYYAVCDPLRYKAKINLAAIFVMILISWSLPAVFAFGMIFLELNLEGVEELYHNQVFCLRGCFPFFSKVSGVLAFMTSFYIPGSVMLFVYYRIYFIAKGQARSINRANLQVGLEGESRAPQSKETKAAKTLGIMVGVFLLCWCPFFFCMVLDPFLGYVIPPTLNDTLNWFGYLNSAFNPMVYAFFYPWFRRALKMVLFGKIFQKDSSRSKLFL
Chain of mouse TAAR1 (Q923Y8 whole entry): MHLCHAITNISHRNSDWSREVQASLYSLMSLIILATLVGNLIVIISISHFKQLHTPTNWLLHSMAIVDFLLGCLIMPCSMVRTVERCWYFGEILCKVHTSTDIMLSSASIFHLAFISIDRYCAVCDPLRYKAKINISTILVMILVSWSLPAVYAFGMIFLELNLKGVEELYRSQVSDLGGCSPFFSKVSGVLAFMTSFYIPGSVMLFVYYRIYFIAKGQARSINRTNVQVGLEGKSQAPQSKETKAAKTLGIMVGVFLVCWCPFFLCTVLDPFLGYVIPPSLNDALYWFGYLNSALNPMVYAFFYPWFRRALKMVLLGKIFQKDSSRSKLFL

Structure (SMILES) | Ki (rat TAAR1) | Ki (mouse TAAR1)
Clc1ccc(Nc2ccc(C[C@]34CN[C@H](CO3)C4)cc2)nc1 [Example 30, 5-Chloro-N-[4-[[(1S,4S)-5-oxa-2-azabicyclo[2.2.1]heptan-4-yl]methyl]phenyl]pyridin-2-amine] | 0.621 µM | 2.55 µM
FC(F)(F)c1ccc(Nc2ccc(C[C@]34CN[C@H](CO3)C4)cc2)nc1 [Example 31, N-[4-[[(1S,4S)-5-Oxa-2-azabicyclo[2.2.1]heptan-4-yl]methyl]phenyl]-5-(trifluoromethyl)pyridin-2-amine] | 0.163 µM | 0.946 µM
FC(F)(F)c1cnc(Nc2ccc(C[C@]34CN[C@H](CO3)C4)cc2)cn1 [Example 32, N-[4-[[(1S,4S)-5-Oxa-2-azabicyclo[2.2.1]heptan-4-yl]methyl]phenyl]-5-(trifluoromethyl)pyrazin-2-amine] | 0.854 µM | > 10 µM
FC(F)(F)c1cnc(Nc2ccc(C[C@]34CN[C@H](CO3)C4)cc2)nc1 [Example 33, N-[4-[[(1S,4S)-5-Oxa-2-azabicyclo[2.2.1]heptan-4-yl]methyl]phenyl]-5-(trifluoromethyl)pyrimidin-2-amine] | 0.881 µM | 5.8 µM
FC(F)(F)c1nccc(Nc2ccc(C34CCC(CO3)NC4)cc2)n1 (stereo not drawn) [Example 36, N-[4-(5-Oxa-2-azabicyclo[2.2.2]octan-4-yl)phenyl]-2-(trifluoromethyl)pyrimidin-4-amine] | 1.97 µM | 0.0471 µM
CC(C)c1cc(C(=O)Nc2ccc(C[C@]34CN[C@H](CO3)C4)cc2)[nH]n1 [Example 38, 3-Isopropyl-N-[4-[[(1S,4S)-5-oxa-2-azabicyclo[2.2.1]heptan-4-yl]methyl]phenyl]-1H-pyrazole-5-carboxamide] | 0.441 µM | 10.1 µM
O=C(Nc1ccc(C[C@@]23CN[C@@H](CO2)C3)cc1)c1cccc(Cl)c1 [Example 39, 3-Chloro-N-[4-[[(1R,4R)-5-oxa-2-azabicyclo[2.2.1]heptan-4-yl]methyl]phenyl]benzamide] | 0.0551 µM | 0.0022 µM
O=C(Nc1ccc(C[C@@]23CN[C@@H](CO2)C3)cc1)c1ccnc(C(F)(F)F)c1 [Example 40, N-[4-[[(1R,4R)-5-Oxa-2-azabicyclo[2.2.1]heptan-4-yl]methyl]phenyl]-2-(trifluoromethyl)pyridine-4-carboxamide] | 0.0987 µM | 0.0522 µM
CCCc1n[nH]c(C(=O)Nc2ccc(C[C@@]34CN[C@@H](CO3)C4)cc2)c1Cl [Example 41, 4-Chloro-N-[4-[[(1R,4R)-5-oxa-2-azabicyclo[2.2.1]heptan-4-yl]methyl]phenyl]-3-propyl-1H-pyrazole-5-carboxamide] | 0.066 µM | 0.0183 µM
Clc1ccc(Nc2ccc(C[C@@]34CN[C@@H](CO3)C4)cc2)nc1 [Example 42, 5-Chloro-N-[4-[[(1R,4R)-5-oxa-2-azabicyclo[2.2.1]heptan-4-yl]methyl]phenyl]pyridin-2-amine] | 0.355 µM | 0.0158 µM
O=C(Nc1ccc(C[C@@]23CN[C@@H](CO2)C3)cc1)Nc1ccccc1Cl [Example 43, 1-(2-Chlorophenyl)-3-[4-[[(1R,4R)-5-oxa-2-azabicyclo[2.2.1]heptan-4-yl]methyl]phenyl]urea] | 0.202 µM | 0.0124 µM
O=C(Nc1ccc(C[C@@]23CN[C@@H](CO2)C3)cc1)Nc1cccc(C(F)(F)F)c1 [Example 44, 1-[4-[[(1R,4R)-5-Oxa-2-azabicyclo[2.2.1]heptan-4-yl]methyl]phenyl]-3-[3-(trifluoromethyl)phenyl]urea] | 0.0108 µM | 0.0046 µM
O=C(Nc1ccc(C[C@@]23CN[C@@H](CO2)C3)cc1)c1ccc(OCC2CC2)cc1 [Example 45, 4-(Cyclopropylmethoxy)-N-[4-[[(1R,4R)-5-oxa-2-azabicyclo[2.2.1]heptan-4-yl]methyl]phenyl]benzamide] | 0.0212 µM | 0.0061 µM
CCOc1ccc(C(=O)Nc2ccc(C[C@@]34CN[C@@H](CO3)C4)cc2)cn1 [Example 46, 6-Ethoxy-N-[4-[[(1R,4R)-5-oxa-2-azabicyclo[2.2.1]heptan-4-yl]methyl]phenyl]pyridine-3-carboxamide] | 0.448 µM | 0.0142 µM
O=C(Nc1ccc(C[C@@]23CN[C@@H](CO2)C3)cc1)c1ccc(OCC(F)(F)F)nc1 [Example 47, N-[4-[[(1R,4R)-5-Oxa-2-azabicyclo[2.2.1]heptan-4-yl]methyl]phenyl]-6-(2,2,2-trifluoroethoxy)pyridine-3-carboxamide] | 0.0104 µM | 0.0104 µM
O=C(Nc1ccc(C[C@@]23CN[C@@H](CO2)C3)cc1)c1[nH]nc(C2CC2)c1Cl [Example 48, 4-Chloro-3-cyclopropyl-N-[4-[[(1R,4R)-5-oxa-2-azabicyclo[2.2.1]heptan-4-yl]methyl]phenyl]-1H-pyrazole-5-carboxamide] | 0.112 µM | 0.0147 µM
CCOc1ccc(C(=O)Nc2ccc(C[C@@]34CN[C@@H](CO3)C4)cc2)cc1 [Example 49, 4-Ethoxy-N-[4-[[(1R,4R)-5-oxa-2-azabicyclo[2.2.1]heptan-4-yl]methyl]phenyl]benzamide] | 0.142 µM | 0.0067 µM
CCc1ncc(C(=O)Nc2ccc(C[C@@]34CN[C@@H](CO3)C4)cc2)cn1 [Example 50, 2-Ethyl-N-[4-[[(1R,4R)-5-oxa-2-azabicyclo[2.2.1]heptan-4-yl]methyl]phenyl]pyrimidine-5-carboxamide] | 1.24 µM | 0.226 µM
